Laboratory results: BindingDB's records for patent US20240335442 (Eurofarma, 2024)

Key:
[1] = target: Sodium channel protein type 9 subunit alpha (Homo sapiens, UniProt Q15858); assay: In Vitro Assay (Protocol 2)
Description: (§1) Compounds of Formula (I), were diluted in eight concentrations in the extracellular solution composed of physiological saline, buffered with HEPES (mM): NaCl, 137; KCl, 4; CaCl2, 3.8; MgCl2, 1; HEPES, 10; Glucose, 10; pH 7.4. […], 50; CsF, 90; MgCl2, 5; EGTA, 5; HEPES, 10; pH 7.2. The duration of exposure of each compound with the cells expressing Nav 1.7 or Nav 1.8 was at least five minutes and the assays were performed at room temperature.The measurements of the sodium currents of Nav 1.8 and Nav 1.7 were obtained using the voltage protocols described below: A holding voltage of-100 mV was established followed by an inactivation voltage step at −40 mV for 8 seconds, followed by a −100 mV step for 20 ms, followed by a 20 ms step for 10 mV for Nav 1.8 or 0 mV for Nav 1.7 (TP1A) before returning to the holding voltage of-100 mV. Protocols were repeated at a frequency of 0.05 Hz and current amplitude was quantified over the TP1A phase log.

[2] = target: Sodium channel protein type 10 subunit alpha (Homo sapiens, UniProt Q9Y5Y9); assay: In Vitro Assay (Protocol 2)
Sequence of Sodium channel protein type 10 subunit alpha (Q9Y5Y9 whole entry): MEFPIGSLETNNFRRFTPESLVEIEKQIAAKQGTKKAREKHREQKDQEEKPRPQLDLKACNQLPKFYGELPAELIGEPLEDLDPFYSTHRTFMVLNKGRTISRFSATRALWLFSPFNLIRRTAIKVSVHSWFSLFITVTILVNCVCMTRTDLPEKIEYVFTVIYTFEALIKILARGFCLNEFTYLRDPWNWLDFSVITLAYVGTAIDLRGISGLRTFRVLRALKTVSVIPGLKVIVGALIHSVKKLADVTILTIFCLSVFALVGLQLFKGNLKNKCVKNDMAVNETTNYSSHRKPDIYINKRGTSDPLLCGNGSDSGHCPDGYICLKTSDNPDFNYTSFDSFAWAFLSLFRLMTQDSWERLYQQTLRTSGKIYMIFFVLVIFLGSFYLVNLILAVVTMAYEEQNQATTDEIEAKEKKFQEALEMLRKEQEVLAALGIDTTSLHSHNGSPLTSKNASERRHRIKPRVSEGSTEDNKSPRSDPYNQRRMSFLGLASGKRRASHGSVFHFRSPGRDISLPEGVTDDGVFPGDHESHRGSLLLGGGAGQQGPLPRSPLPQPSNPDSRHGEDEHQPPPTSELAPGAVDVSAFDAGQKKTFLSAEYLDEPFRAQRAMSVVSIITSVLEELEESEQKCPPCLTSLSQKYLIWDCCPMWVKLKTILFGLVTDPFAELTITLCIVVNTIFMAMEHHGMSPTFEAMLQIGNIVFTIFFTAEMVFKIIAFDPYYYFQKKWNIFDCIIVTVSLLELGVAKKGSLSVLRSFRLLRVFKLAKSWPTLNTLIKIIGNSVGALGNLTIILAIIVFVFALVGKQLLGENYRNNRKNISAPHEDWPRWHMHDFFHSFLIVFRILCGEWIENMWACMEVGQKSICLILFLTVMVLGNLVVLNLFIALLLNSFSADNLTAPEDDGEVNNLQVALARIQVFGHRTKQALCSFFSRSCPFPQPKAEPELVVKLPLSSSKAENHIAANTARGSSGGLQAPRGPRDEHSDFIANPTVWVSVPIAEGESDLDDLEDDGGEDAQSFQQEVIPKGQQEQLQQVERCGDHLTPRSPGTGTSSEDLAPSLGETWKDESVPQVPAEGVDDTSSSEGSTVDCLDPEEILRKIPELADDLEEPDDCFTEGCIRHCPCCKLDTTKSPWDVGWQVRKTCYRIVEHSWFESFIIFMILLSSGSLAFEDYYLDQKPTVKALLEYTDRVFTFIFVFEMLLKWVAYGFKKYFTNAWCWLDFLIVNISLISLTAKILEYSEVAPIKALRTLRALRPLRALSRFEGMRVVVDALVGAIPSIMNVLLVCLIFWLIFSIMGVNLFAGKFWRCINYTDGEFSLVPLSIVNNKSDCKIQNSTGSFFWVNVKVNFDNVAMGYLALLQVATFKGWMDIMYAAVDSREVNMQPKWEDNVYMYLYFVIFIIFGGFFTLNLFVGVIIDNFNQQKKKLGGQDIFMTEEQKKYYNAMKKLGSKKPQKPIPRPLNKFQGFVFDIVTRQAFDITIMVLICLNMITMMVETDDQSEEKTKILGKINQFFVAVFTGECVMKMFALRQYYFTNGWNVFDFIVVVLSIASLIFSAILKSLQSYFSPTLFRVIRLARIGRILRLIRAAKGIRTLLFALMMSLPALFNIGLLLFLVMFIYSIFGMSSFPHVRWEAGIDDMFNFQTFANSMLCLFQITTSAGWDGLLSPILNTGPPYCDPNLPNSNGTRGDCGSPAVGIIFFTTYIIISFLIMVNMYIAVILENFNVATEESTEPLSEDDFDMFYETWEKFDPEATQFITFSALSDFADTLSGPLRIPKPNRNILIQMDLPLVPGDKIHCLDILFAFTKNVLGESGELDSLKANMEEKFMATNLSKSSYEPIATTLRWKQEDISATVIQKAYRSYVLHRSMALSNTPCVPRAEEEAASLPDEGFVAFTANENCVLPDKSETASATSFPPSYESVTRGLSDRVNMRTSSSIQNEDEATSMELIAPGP
Description: as §1

Sequence of Sodium channel protein type 9 subunit alpha (Q15858 whole entry): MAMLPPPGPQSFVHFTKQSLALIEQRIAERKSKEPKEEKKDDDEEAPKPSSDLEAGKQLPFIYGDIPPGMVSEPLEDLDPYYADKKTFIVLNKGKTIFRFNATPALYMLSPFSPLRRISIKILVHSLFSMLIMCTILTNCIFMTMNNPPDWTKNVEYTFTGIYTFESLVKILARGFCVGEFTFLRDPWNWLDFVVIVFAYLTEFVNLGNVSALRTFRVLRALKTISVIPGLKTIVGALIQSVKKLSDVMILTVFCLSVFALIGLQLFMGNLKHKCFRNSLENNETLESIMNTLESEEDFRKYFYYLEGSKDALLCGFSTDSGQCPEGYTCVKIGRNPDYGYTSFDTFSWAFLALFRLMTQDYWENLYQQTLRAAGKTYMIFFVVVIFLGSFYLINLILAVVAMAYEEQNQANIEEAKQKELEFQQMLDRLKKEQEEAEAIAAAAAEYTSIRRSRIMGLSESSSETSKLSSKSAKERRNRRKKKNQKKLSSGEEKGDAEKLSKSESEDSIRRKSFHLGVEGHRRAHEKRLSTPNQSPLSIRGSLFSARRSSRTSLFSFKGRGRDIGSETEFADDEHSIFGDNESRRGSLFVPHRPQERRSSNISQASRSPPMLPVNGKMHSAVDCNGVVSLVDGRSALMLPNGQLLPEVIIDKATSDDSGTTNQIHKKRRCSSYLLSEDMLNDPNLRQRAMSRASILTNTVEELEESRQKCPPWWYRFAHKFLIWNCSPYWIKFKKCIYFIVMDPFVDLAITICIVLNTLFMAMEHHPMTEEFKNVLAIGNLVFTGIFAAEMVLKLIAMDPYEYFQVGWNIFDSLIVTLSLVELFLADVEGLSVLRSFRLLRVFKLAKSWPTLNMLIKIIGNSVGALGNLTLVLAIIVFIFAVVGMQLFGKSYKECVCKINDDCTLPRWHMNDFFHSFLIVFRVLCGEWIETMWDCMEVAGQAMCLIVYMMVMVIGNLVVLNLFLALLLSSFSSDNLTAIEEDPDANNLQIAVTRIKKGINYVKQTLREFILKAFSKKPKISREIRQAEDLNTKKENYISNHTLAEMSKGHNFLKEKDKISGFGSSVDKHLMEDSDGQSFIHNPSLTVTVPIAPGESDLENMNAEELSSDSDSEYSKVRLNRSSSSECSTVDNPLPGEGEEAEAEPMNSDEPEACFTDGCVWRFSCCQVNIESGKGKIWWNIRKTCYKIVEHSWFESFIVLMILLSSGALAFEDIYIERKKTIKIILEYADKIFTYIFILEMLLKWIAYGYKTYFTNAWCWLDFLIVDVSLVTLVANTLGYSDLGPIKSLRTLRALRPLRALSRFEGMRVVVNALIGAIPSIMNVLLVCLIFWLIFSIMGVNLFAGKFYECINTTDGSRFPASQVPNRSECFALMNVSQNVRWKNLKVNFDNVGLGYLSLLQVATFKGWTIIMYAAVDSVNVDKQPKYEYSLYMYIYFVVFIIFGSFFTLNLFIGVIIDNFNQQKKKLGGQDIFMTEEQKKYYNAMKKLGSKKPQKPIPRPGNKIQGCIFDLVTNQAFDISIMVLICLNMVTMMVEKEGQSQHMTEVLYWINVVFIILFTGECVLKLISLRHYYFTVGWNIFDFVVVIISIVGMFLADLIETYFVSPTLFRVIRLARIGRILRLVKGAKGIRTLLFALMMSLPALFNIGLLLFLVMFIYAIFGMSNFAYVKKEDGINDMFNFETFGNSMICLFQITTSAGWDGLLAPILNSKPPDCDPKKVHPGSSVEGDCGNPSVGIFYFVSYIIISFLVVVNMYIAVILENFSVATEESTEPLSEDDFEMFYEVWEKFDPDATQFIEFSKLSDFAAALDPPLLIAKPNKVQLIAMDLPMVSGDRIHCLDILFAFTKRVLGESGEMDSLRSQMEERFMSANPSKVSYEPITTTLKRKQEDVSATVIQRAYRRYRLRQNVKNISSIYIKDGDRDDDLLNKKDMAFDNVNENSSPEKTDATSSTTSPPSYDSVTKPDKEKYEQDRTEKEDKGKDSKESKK

Compound | IC50 [1] [nM] | IC50 [2] [nM]
COc1ccc(-c2cncc(C(=O)N/N=C/c3cc(OC(C)C)cc(OC(C)C)c3)n2)cc1 [US20240335442, Compound 69] | 1430 | 517
COc1ccc(-c2cncc(C(=O)N/N=C/c3cc(OC)c(OC)c(OC)c3)n2)cc1 [US20240335442, Compound 81] | > 10000 | > 1000
COc1ccc(Oc2nccnc2C(=O)N/N=C/c2cc(OC)cc(OC)c2)cc1 [US20240335442, Compound 129] | > 10000 | > 1000
CC(C)Oc1ccc(-c2cncc(C(=O)N/N=C/C3CCC(F)(F)CC3)n2)cc1 [US20240335442, Compound 176] | 400 | 456
COc1ccc(-c2cncc(C(=O)N/N=C/C3=C(C)CCCC3)n2)cc1 [US20240335442, Compound 197] | 778 | 162
CCOc1ccc(-c2cncc(C(=O)N/N=C/C3=C(C)CCCC3)n2)cc1 [US20240335442, Compound 198] | 367 | 24
CCOc1ccc(-c2cncc(C(=O)N/N=C/C3=C(C)CCCCC3)n2)cc1 [US20240335442, Compound 201] | 425 | 70
CCOc1ccc(-c2nc(C(=O)N/N=C/c3cc(OC)cc(OC)c3)cnc2C)cc1 [US20240335442, Compound 207] | > 10000 | 472
CCOc1ccc(-c2nc(C(=O)N/N=C/c3cc(OC)cc(OC)c3)cnc2CC)cc1 [US20240335442, Compound 208] | 1890 | 431
CCOc1ccc(-c2nc(C(=O)N/N=C/c3cc(OC)cc(OC)c3)cnc2OC)cc1 [US20240335442, Compound 211] | > 10000 | > 1000

Next, values leading:

IC50 [1] [nM] | IC50 [2] [nM] | Compound
3920 | 188 | CCOc1ccccc1/C=N/NC(=O)c1cncc(-c2ccc(OC)cc2)n1 [US20240335442, Compound 43]
3620 | 163 | CCCOc1ccccc1/C=N/NC(=O)c1cncc(-c2ccc(OC)cc2)n1 [US20240335442, Compound 44]
1830 | 289 | CCCOc1cc(/C=N/NC(=O)c2cncc(-c3ccc(OC)cc3)n2)cc(OCCC)c1 [US20240335442, Compound 68]
10000 | 973 | COc1ccc(-c2cncc(C(=O)N/N=C/c3cc(F)cc(F)c3)n2)cc1 [US20240335442, Compound 70]
464 | 51.2 | COc1ccc(-c2cncc(C(=O)N/N=C/c3cc(C)cc(C)c3)n2)cc1 [US20240335442, Compound 75]
1490 | 352 | COc1ccc(-c2cncc(C(=O)N/N=C/c3cc(OC)cc(OC)c3OC)n2)cc1 [US20240335442, Compound 80]
1910 | 116 | CCOc1ccc(-c2cncc(C(=O)N/N=C/c3cc(OC)cc(C(C)O)c3)n2)cc1 (centres undefined) [US20240335442, Compound 215]
